Reference: patent publication US12715858B2, “Pyridazinone compounds” (INVENTISBIO CO., LTD., priority 2020, dated 2026)
Like-named read-outs stand apart in the source and are kept apart here.

Assays:
Type in all cases: physicochemical
[1] = Interconversion study of potassium salt Form 1 and Form 2 (slurry of equal amounts); details: for XRPD result: 20 V, stirred overnight
Procedure: Interconversion study were performed in MeOH/EA (1/9, RT or 50° C.) and acetone/water (20/1, RT or 50° C.). Equal amounts of Form 1 and Form 2 were slurried in specified solvents at different temperatures for certain time.

[2] = Dynamic Vapor Sorption (DVS); details: for hygroscopicity: DVS; for water uptake / weight gain by DVS: at 80% RH (Form I: 0 to 80% RH), 25° C.
Procedure: Dynamic Vapor Sorption (DVS): Moisture sorption/desorption data was collected on a IGASorp DVS. The sample was placed into a tarred sample chamber and weighed automatically. The sample was dried at 50° C. until the % RH was less than 0.3% and cooled to 25° C. Set the instrument parameters as below.

[3] = Solid state stability at 60° C. and 40° C./75% RH for 7 days (HPLC purity, XRPD); details: for chemical and physical stability: 40° C./75% RH and 60° C. for 7 days; for Purity at Day 7 (Area %) 40° C./75% RH: 7 days at 40° C./75% RH; for Purity at Day 7 (Area %) 40° C./75% RH / Purity at Day 7 (Area %) 60° C.: HPLC; for Purity at Day 7 (Area %) 60° C.: 7 days at 60° C.; for XRPD 40° C./75% RH: crystal form after 7 days at 40° C./75% RH; for XRPD 60° C.: crystal form after 7 days at 60° C.; for Initial Purity (Area %): day 0, HPLC
Procedure: HPLC analysis was performed with an Agilent HPLC 1260 series instrument.
Appropriate amount of free acid Form I, potassium salts Form 1 and Form 2, and sodium salt Form A were placed at 60° C. and 40° C./75% RH for 7 days. At 0 and 7 days, the samples were dissolved in diluent to prepare a solution of 0.5 mg/mL for HPLC purity analysis. Solid samples were analyzed by XRPD to check the crystal form.

[4] = Solubility in water and bio-relevant media at 37° C. (HPLC of filtrate, pH of filtrate, XRPD of filter cake); details: for solubility at 0.5 h / solubility at 2 h / solubility at 24 h: 37 °C, thermodynamic from solid; for solubility at 0.5 h / Solubility (mg/mL) 2 h / Solubility (mg/mL) 24 h / Solubility (mg/mL) 0.5 h / solubility at 2 h / solubility at 24 h: 37° C.; for solubility at 0.5 h: read-out: Solubility (mg/mL) 0.5 h; for XRPD: filter cake obtained at 2 or 24 hours; for PH 0.5 h / PH 2 h / PH 24 h: pH of the filtrate; for solubility at 2 h: read-out: Solubility (mg/mL) 2 h; for solubility at 24 h: read-out: Solubility (mg/mL) 24 h
Procedure: Solubility of Form I of free acid, Form 1 and Form 2 of potassium salt, and Form A of sodium salt were tested in water and in bio-relevant media of Simulated Intestinal Fluid (SIF), Simulated Gastric Fluid (SGF), Fasted State Simulated Intestinal Fluid (FaSSIF), and Fed State Simulated Intestinal Fluid (FeSSIF) at 37° C. up to 24 hours. About 12 mg of the sample was weighed into sample vials and then 1.5 mL of each media was added to make suspensions respectively. All suspensions were shaken at 37° C. with 200 rpm.

[5] = FaSSIF (Fasted State Simulated Intestinal Fluid), fassif, FaSSIF, LOQ is 0.5 μg/mL
[6] = FeSSIF (Fed State Simulated Intestinal Fluid), fessif, FeSSIF
[7] = water, water, Water, LOQ is 0.5 μg/mL

SMILES: Cc1nn(-c2cc(Cl)c(Oc3cc(C(C)C)c(=O)[nH]n3)c(Cl)c2)c(=O)[n-]c1=O.[K+] [Potassium Salts Form 1 and 2]
- XRPD result ([1]; 50° C., Acetone/Water (19/1)): Form 2
- XRPD result ([1]; 50° C., MeOH/EtOAc (1/9)): Form 1
- XRPD result ([1]; RT, Acetone/Water (19/1)): Form 2
- XRPD result ([1]; RT, MeOH/EtOAc (1/9)): Form 1

SMILES: Cc1nn(-c2cc(Cl)c(Oc3cc(C(C)C)c(=O)[nH]n3)c(Cl)c2)c(=O)[n-]c1=O.[K+] [Potassium salt Form 2]
- DVS Water % at 80% RH ([2]; 80% RH, forms of potassium salt of Compound 1): 1.6%
- hygroscopicity [2]: slight hygroscopic
- crystal form of solid after the DVS study ([2]; XRPD after DVS): remained unchanged
- water uptake / weight gain by DVS [2]: 1.6%
- chemical and physical stability [3]: chemically and physically stable
- Purity at Day 7 (Area %) 40° C./75% RH [3]: 98.97 Area %
- Purity at Day 7 (Area %) 60° C. [3]: 99.07 Area %
- XRPD 40° C./75% RH [3]: Unchanged
- XRPD 60° C. [3]: Unchanged
- Initial Purity (Area %) [3]: 99.04 Area %
- relative stability of Form 1 and Form 2 ([1]; slurry in MeOH/EA and acetone/water, RT or 50° C.): more stable in aqueous solution
- solubility at 0.5 h [4, 5]: 0.0011 mg/mL
- Solubility (mg/mL) 2 h ([4]; FaSSIF, LOQ is 0.5 μg/mL): 0.015 mg/mL
- Solubility (mg/mL) 24 h ([4]; FaSSIF): 0.0070 mg/mL
- Solubility (mg/mL) 0.5 h ([4]; FeSSIF): 0.0041 mg/mL
- Solubility (mg/mL) 2 h ([4]; FeSSIF): 0.013 mg/mL
- Solubility (mg/mL) 24 h ([4]; FeSSIF): 0.022 mg/mL
- Solubility (mg/mL) 0.5 h ([4]; SGF, LOQ is 0.5 μg/mL): <LOQ
- Solubility (mg/mL) 2 h ([4]; SGF, LOQ is 0.5 μg/mL): <LOQ
- Solubility (mg/mL) 24 h ([4]; SGF, LOQ is 0.5 μg/mL): <LOQ
- Solubility (mg/mL) 0.5 h ([4]; SIF, LOQ is 0.5 μg/mL): <LOQ
- Solubility (mg/mL) 2 h ([4]; SIF, LOQ is 0.5 μg/mL): <LOQ
- Solubility (mg/mL) 24 h ([4]; SIF, LOQ is 0.5 μg/mL): <LOQ
- Solubility (mg/mL) 0.5 h ([4]; Water, LOQ is 0.5 μg/mL): 4.63 mg/mL
- Solubility (mg/mL) 2 h ([4]; Water, LOQ is 0.5 μg/mL): 6.69 mg/mL
- Solubility (mg/mL) 24 h ([4]; Water, LOQ is 0.5 μg/mL): 6.71 mg/mL
- XRPD ([4]; FaSSIF): Free acid
- XRPD ([4]; FeSSIF): Free acid
- XRPD ([4]; SGF): Free acid
- XRPD ([4]; SIF): Free acid
- XRPD ([4]; Water): Free acid
- PH 0.5 h ([4]; FaSSIF): 7.04
- PH 2 h ([4]; FaSSIF): 7.49
- PH 24 h ([4]; FaSSIF): 7.90
- PH 0.5 h ([4]; FeSSIF): 5.09
- PH 2 h ([4]; FeSSIF): 5.24
- PH 24 h ([4]; FeSSIF): 5.17
- PH 0.5 h ([4]; SGF): 1.35
- PH 2 h ([4]; SGF): 1.25
- PH 24 h ([4]; SGF): 1.25
- PH 0.5 h ([4]; SIF): 7.43
- PH 2 h ([4]; SIF): 7.51
- PH 24 h ([4]; SIF): 7.46
- PH 0.5 h ([4]; Water): 10.49
- PH 2 h ([4]; Water): 10.62
- PH 24 h ([4]; Water): 10.42

SMILES: Cc1nn(-c2cc(Cl)c(Oc3cc(C(C)C)c(=O)[nH]n3)c(Cl)c2)c(=O)[n-]c1=O.[Na+] [Sodium salt Form A]
- hygroscopicity [2]: slightly hygroscopic
- water uptake / weight gain by DVS [2]: about 1.6%
- chemical and physical stability [3]: chemically and physically stable
- Purity at Day 7 (Area %) 40° C./75% RH [3]: 98.02 Area %
- Purity at Day 7 (Area %) 60° C. [3]: 98.01 Area %
- XRPD 40° C./75% RH [3]: Unchanged
- XRPD 60° C. [3]: Unchanged
- Initial Purity (Area %) [3]: 97.98 Area %
- solubility at 0.5 h [4, 5]: 0.0013 mg/mL
- solubility at 2 h [4, 5]: 0.015 mg/mL
- solubility at 24 h ([4]; FaSSIF (Fasted State Simulated Intestinal Fluid), fassif, FaSSIF): 0.013 mg/mL
- solubility at 0.5 h [4, 6]: 0.0011 mg/mL
- solubility at 2 h [4, 6]: 0.0029 mg/mL
- solubility at 24 h [4, 6]: 0.012 mg/mL
- Solubility (mg/mL) 0.5 h ([4]; SGF, LOQ is 0.5 μg/mL): <LOQ
- Solubility (mg/mL) 2 h ([4]; SGF, LOQ is 0.5 μg/mL): <LOQ
- Solubility (mg/mL) 24 h ([4]; SGF, LOQ is 0.5 μg/mL): <LOQ
- Solubility (mg/mL) 0.5 h ([4]; SIF, LOQ is 0.5 μg/mL): <LOQ
- Solubility (mg/mL) 2 h ([4]; SIF, LOQ is 0.5 μg/mL): <LOQ
- Solubility (mg/mL) 24 h ([4]; SIF, LOQ is 0.5 μg/mL): <LOQ
- XRPD ([4]; FaSSIF): Free acid
- XRPD ([4]; FeSSIF): Free acid
- XRPD ([4]; SGF): Free acid
- XRPD ([4]; SIF): Free acid
- XRPD ([4]; Water): Free acid +
- PH 0.5 h ([4]; FaSSIF): 7.07
- PH 2 h ([4]; FaSSIF): 7.33
- PH 24 h ([4]; FaSSIF): 8.27
- PH 0.5 h ([4]; FeSSIF): 5.09
- PH 2 h ([4]; FeSSIF): 5.18
- PH 24 h ([4]; FeSSIF): 5.26
- PH 0.5 h ([4]; SGF): 1.24
- PH 2 h ([4]; SGF): 1.24
- PH 24 h ([4]; SGF): 1.24
- PH 0.5 h ([4]; SIF): 7.23
- PH 2 h ([4]; SIF): 7.60
- PH 24 h ([4]; SIF): 7.65
- PH 0.5 h ([4]; Water): 10.76
- PH 2 h ([4]; Water): 10.81
- PH 24 h ([4]; Water): 10.63
- solubility at 0.5 h [4, 7]: 2.8 mg/mL
- solubility at 2 h [4, 7]: 3.51 mg/mL
- solubility at 24 h [4, 7]: 4.57 mg/mL
